Columns and labels:
[1] = Stability of the compounds: buffer hydrolysis (half-times, shelf-life); assay type: physicochemical
Experimental: The stability of the test compounds were tested with buffer hydrolyses. The ionic strength (µ) of the buffers was 0.5, the pH-values used 4.2, 6.0, 7.4 and 9.0 and the temperatures used 37°C, 50 °C, 60 °C and 70 °C.
The half-times T½ calculated on basis of the degradation constant k obtained for each studied compound (T½=0.693/k; k = 2.303 x kk, wherein kk is the angular coefficient of the plot which illustrates the logarithm of the remaining ester as a function of time) in a buffer solution of said pH, are indicated in the Table I below, which values refer to half-times at 37°C.
The storage stability of the derivatives under different storage conditions may be estimated by determining the degradation constants at different temperatures and calculating the degradation constant k at the desired temperature from the equation of the plot corresponding to the Arrhenius equation (1), wherein log k is given as a function of [1/T]. Log k = Log A -(Ea)/(2.303R)x(1)/(T) [formula]
From the degradation constant (k) obtained at the desired temperature the shelf-life-time t10% (t10% = 0.104/k) which indicates the time during which 10% of the drug has degraded may be calculated. By way of example it may be mentioned that the t10%-time of O,O'-dipropionyl (1,4-xylylene) bispilocarpate at 4 °C is almost 500 days.

[2] = Lipophilicity: partition coefficient (octanol-buffer) and capacity factor by RP-HPLC; assay type: physicochemical; details: for chromatographic logP: reverse phase HPLC, 22°C, read-out: Capacity factor (22°C) k' (converted)
Source text: The lipophilicity of the compounds were studied by determining the partition coefficients (P) of the compounds at a pH of 7.40. The measurements were made either in an octanol-buffer mixture by determining the concentration of the compound to be studied in the buffer phase by HPLC. The partition coefficients of the very lipophilic compounds were, however, determined by reverse phase (RP) liquid chromatography (HPLC) from the retention time (Beckmann 116 pump and 166 UV detector; Marathon autom. sample feeder). […] From the results it can be seen that the compounds of the invention are considerably more lipophilic than the pilocarpine.

[3] = pKa-value determination by titration in a water-ethanol mixture (50%-50%); assay type: physicochemical; details: water-ethanol 50:50; titration in water-ethanol mixture (50%-50%)
[4] = Enzyme hydrolysis in plasma/buffer pH 7.4 mixture (80%-20%); assay type: in vitro ADME; details: for half-life: 80% plasma/buffer
Experimental: The half-times of enzyme hydrolysis of the novel bispilocarpates according to the invention and of known pilocarpic acid diesters were determined in a plasma/buffer pH 7.4-mixture (80%-20%) at 37°C. The degradation constants (k) for the compounds tested and determined from the plot showing the logarithm of remaining diester as a function of time and the half-lives T½ are shown in the Table II below. From the results it may be seen that in […] the stable test compound degrades under the influence of an enzyme (esterase) to a O,O'-dihydrogen bispilocarpate intermediate, which spontaneously degrades at pH 7.40 to pilocarpine. Consequently the effect of the bispilocarpate intermediate on the rate of formation of pilocarpine is very significant. The formation of pilocarpine was almost complete irrespective of the epimerization possibility of the intermediate. The amount of isopilocarpine formed varied from 0 to 10%, as also the pilocarpine formed epimerized, if the duration of hydrolysis was very long.

[5] = buffer pH 6.00, ionic strength 0.5, 37°C, read-out: Half-times in buffers at 37°C, T½, pH 6.00 (converted)
[6] = buffer pH 9.00, ionic strength 0.5, 37°C, read-out: Half-times in buffers at 37°C, T½, pH 9.00 (converted)
[7] = pH 4.2, buffer pH 4.20, ionic strength 0.5, 37°C, read-out: Half-times in buffers at 37°C, T½, pH 4.20 (converted)
[8] = pH 7.4, buffer pH 7.40, ionic strength 0.5, 37°C, read-out: Half-times in buffers at 37°C, T½, pH 7.40 (converted)

SMILES	half-life [1, 5] [h]	half-life [1, 6] [h]	half-life [1, 7] [h]	half-life [1, 8] [h]	chromatographic logP ([2]; rp-hplc)	pKa [3]	half-life ([1]; buffer, pH 4.2) [h]	half-life ([1]; buffer, pH 6) [h]	half-life ([1]; buffer, pH 7.4) [h]	half-life ([1]; buffer, pH 9) [h]	Partition coefficient log P ([2]; pH 7.4)	Capacity factor (22°C) k' ([2]; rp-hplc)	half-life ([4]; pH 7.4) [h]	Degradation coefficient (k) in plasma (80%), 37°C ([4]; pH 7.4) [min⁻¹]	half-life ([4]; plasma/buffer pH 7.4 (80%-20%), 37°C, read-out: half-times (T½) in plasma (80%), 37°C) [h]	Degradation coefficient (k) in plasma (80%), 37°C ([4]; plasma/buffer pH 7.4 (80%-20%), 37°C) [min⁻¹]
CC[C@H](C(=O)OCCCCCCOC(=O)[C@@H](CC)[C@H](CO)Cc1cncn1C)[C@H](CO)Cc1cncn1C [Example 5, O,O'-Dihydrogen (1,6-hexylene) bispilocarpate]	25.1	0.233	62.6	2.5	-0.0494	6.3										
CC[C@H](C(=O)OCCCCCCCOC(=O)[C@@H](CC)[C@H](CO)Cc1cncn1C)[C@H](CO)Cc1cncn1C [Example 4, O,O'-Dihydrogen (1,7-heptylene) bispilocarpate]	29.9	0.3	81.8	3.35	0.0518	6.3										
CC[C@H](C(=O)OCc1ccccc1COC(=O)[C@@H](CC)[C@H](CO)Cc1cncn1C)[C@H](CO)Cc1cncn1C [Example 3, O,O'-Dihydrogen (1,2-xylylene) bispilocarpate]	3.35	0.0233	20.2	0.417	-0.0814	6.3										
CC[C@H](C(=O)OCc1ccc(COC(=O)[C@@H](CC)[C@H](CO)Cc2cncn2C)cc1)[C@H](CO)Cc1cncn1C [Example 1, O,O'-Dihydrogen (1,4-xylylene) bispilocarpate]	2.28	0.0317	37.6	0.3	-0.0915	6.25										
CC[C@H](C(=O)OCCCCCOC(=O)[C@@H](CC)[C@H](CO)Cc1cncn1C)[C@H](CO)Cc1cncn1C [Example 6, O,O'-Dihydrogen (1,5-pentylene) bispilocarpate]	24.6	0.233	73	2.08	-0.123	6.3										
CC[C@H](C(=O)OCc1cccc(COC(=O)[C@@H](CC)[C@H](CO)Cc2cncn2C)c1)[C@H](CO)Cc1cncn1C [Example 2, O,O'-Dihydrogen (1,3-xylylene) bispilocarpate]	2.78	0.0183	48.8	0.317	-0.0814	6.3										

More lines, now with the values ahead:

half-life [1, 5] [h]	half-life [1, 6] [h]	half-life [1, 7] [h]	half-life [1, 8] [h]	chromatographic logP ([2]; rp-hplc)	pKa [3]	half-life ([1]; buffer, pH 4.2) [h]	half-life ([1]; buffer, pH 6) [h]	half-life ([1]; buffer, pH 7.4) [h]	half-life ([1]; buffer, pH 9) [h]	Partition coefficient log P ([2]; pH 7.4)	Capacity factor (22°C) k' ([2]; rp-hplc)	half-life ([4]; pH 7.4) [h]	Degradation coefficient (k) in plasma (80%), 37°C ([4]; pH 7.4) [min⁻¹]	half-life ([4]; plasma/buffer pH 7.4 (80%-20%), 37°C, read-out: half-times (T½) in plasma (80%), 37°C) [h]	Degradation coefficient (k) in plasma (80%), 37°C ([4]; plasma/buffer pH 7.4 (80%-20%), 37°C) [min⁻¹]	SMILES
				0.631	6.05	834	49	6	0.4	5.7137^2	4.2785	2.78	0.00415			CC[C@H](C(=O)OCc1ccccc1)[C@H](COC(=O)/C=C/C(=O)OC[C@H](Cc1cncn1C)[C@H](CC)C(=O)OCc1ccccc1)Cc1cncn1C [Example 18, O,O'-Fumaroyl (dibenzyl) bispilocarpate]
10.3	0.0667	67.3	1.2	-0.212	6.4											CC[C@H](C(=O)OCCCOC(=O)[C@@H](CC)[C@H](CO)Cc1cncn1C)[C@H](CO)Cc1cncn1C [Example 8, O,O' -Dihydrogen (1,3-propylene) bispilocarpate]
				-0.116	6.5											CC[C@H](C(=O)OCc1ccccc1)[C@H](CO)Cc1cncn1C [pilocarpic acid benzyl ester]
														0.45	0.02556	CCCCCCCC(=O)OC[C@H](Cc1cncn1C)[C@H](CC)C(=O)OCc1ccccc1 [octanoyl, benzyl, reference compound]
18.9	0.167	120	2.63	-0.182	6.35											CC[C@H](C(=O)OCCCCOC(=O)[C@@H](CC)[C@H](CO)Cc1cncn1C)[C@H](CO)Cc1cncn1C [Example 7, O,O'-Dihydrogen (1,4-butylene) bispilocarpate]

— patent publication EP0559700B1, “NOVEL PILOCARPINE DERIVATIVES AND PROCESS FOR THEIR PREPARATION” (Santen Oy, priority 1990, dated 1992)
